Laboratory results as given in US20050054605A1, “Partial or full A1 agonists - N6 heterocyclic 5' thio substituted adenosine derivatives” (priority 1999, published 2005).

Tests used:
A1 receptor [1] = target: T1, A1 receptor (Sus scrofa, UniProt I3LEN5); experiment: Competitive binding assay, pig striatum membranes, [3H]CPX; settings: pig striatal membranes, antagonist [3H]CPX 2 nM, 23 C, 2 h
T1 construct: from tissue; host or cells: pig striatum membranes
T1 sequence (I3LEN5 1-326): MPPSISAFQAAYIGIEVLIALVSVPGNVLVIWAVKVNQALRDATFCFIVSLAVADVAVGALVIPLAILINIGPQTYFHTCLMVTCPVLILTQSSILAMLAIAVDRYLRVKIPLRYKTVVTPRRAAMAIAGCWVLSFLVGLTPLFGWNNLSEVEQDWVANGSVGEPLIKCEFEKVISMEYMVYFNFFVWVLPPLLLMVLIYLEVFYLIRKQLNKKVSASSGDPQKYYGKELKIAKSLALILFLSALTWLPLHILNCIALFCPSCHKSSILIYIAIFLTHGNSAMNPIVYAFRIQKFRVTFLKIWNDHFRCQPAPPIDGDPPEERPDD
Description: (§1) Pig striatum were prepared by homogenation in 50 mM Tris buffer (5× volume of tissue mass pH=7.4). After centrifugation at 19,000 rpm for 25 minutes at 4° C., the supernatant was discarded, and the process was repeated twice. Compositions of this invention were assayed to determine their affinity for the A1 receptor in a pig striatum membrane prep or a DDT1 membrane prep. Briefly, 0.2 mg of pig striatal membranes or DDT1 cell membranes were treated with adenosine deaminase and 50 mM Tris buffer (pH=7.4) followed by mixing. To the pig membranes was added 2 μL of serially diluted DMSO stock solution of the compounds of this invention at concentrations ranging from 100 microM to 10 nM. The control received 2 microL of DMSO alone, then the antagonist [^3H] 8-cyclopentylxanthine (CPX) for pig striatum or the agonist [^3H] 2-chloro-6-cyclopentyladenosine (CCPA) for DDT1 membranes in Tris buffer (50 mM, pH of 7.4) was added to achieve a final concentration of 2 nM. After incubation at 23 C for 2 h, then the solutions were filtered using a membrane harvester using multiple washing of the membranes (3×). The filter disks were counted in scintillation cocktail affording the amount of displacement of tritiated CPX or by the competitive binding compositions of this invention. Greater than a 5 point curve was used to generate Ki's and the number of experiments is indicated in the column marked in Table 1, below: […]

A1 AdoR = target: T2, A1 AdoR (Mesocricetus auratus, UniProt A0A1U8BVR4); experiment: [35S]GTPγS binding assay (A1-agonist stimulated), DDT1 membranes; assay type: biochemical, hamster; settings: stimulated [35S]GTPγS binding normalized to the full agonist CPA
T2 construct: endogenous in cells; host or cells: DDT1 cells (hamster vas deferens smooth muscle cell line): membranes in A1 and A3, whole cells in A4
T2 sequence (A0A1U8BVR4 1-326): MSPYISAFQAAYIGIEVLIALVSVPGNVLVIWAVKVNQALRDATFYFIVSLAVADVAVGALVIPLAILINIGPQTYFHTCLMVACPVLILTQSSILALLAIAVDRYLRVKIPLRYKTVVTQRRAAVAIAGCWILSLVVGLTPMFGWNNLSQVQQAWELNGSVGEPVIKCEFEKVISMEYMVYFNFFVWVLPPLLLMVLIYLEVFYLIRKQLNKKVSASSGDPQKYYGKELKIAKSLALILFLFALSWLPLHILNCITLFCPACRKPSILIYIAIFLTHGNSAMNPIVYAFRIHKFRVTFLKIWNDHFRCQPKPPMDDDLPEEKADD
Description: (§2) DDT cells (hamster vas deferens smooth muscle cell line) were grown as monolayers in petri dishes using Dulbecco's Modified Eagle's Medium (DMEM) containing […] amphotericin B, 100 U ml^−1 penicillin G, 0.1 mg ml^−1 streptomycin sulfate and 5% fetal bovine serum in a humidified atmosphere of 95% air and 5% CO2. Cells were subcultured twice weekly by dispersion in Hank's Balanced Salt Solution (HBSS) without the divalent cations and containing 1 mM EDTA. The cells were then seeded in growth medium at a density of 1.2×10^5 cells per plate and experiments were performed 4 days later at approximately one day preconfluence.
(§3) Attached cells were washed twice with HBSS (2×10 ml), scraped free of the plate with the aid of a rubber policeman in 5 ml of 50 mM Tris-HCl buffer pH 7.4 at 4° C. and the suspension homogenized for 10 s. The suspension was then centrifuged at 27,000×g for 10 min. The pellet was resuspended in homogenization buffer by vortexing and centrifuged as described above. The final pellet was resuspended in 1 vol of 50 mM Tris-HCl buffer pH 7.4 containing 5 mM MgCl2 for A1 AdoR assays. For the [^35S]GTPγS binding assay the final pellet was resuspended in 50 mM Tris-HCl pH 7.4 containing 5 mM MgCl2, 100 mM NaCl and 1 mM dithiothreitol. This membrane suspension was then placed in liquid nitrogen for 10 min, thawed and used for assays. The protein content was determined with a Bradford™ Assay Kit using bovine serum albumin as standard.
A1-agonist stimulated [^35S] GTPγS binding was determined by a modification of the method described by Giersckik et al. (1991) and Lorenzen et al. (1993). […] Nonspecific binding was determined by the addition of 10 μM GTPγS. […] Previous reports have shown that agonist stimulated [^35S]GTPγS binding was dependent on the presence of GDP (Gierschik et al., 1991; Lorenzen et al., 1993; Traynor & Nahorski, 1995). […] In saturation experiments, 0.5 nM [^35S]GTPγS was incubated with 0.5-1000 nM GTPγS. At the end of the incubation, each suspension was filtered and the retained radioactivity determined as described above.

[2] = target: T3, A1 receptor in DDT1 cells (Mesocricetus auratus, UniProt A0A1U8BVR4); experiment: cAMP assay (SPA) in DDT1 cells, forskolin-induced cAMP; assay type: cell-based, hamster; settings: forskolin 5 μM; for Camp: rolipram 50 μM, 10 min 37° C., normalized to the full agonist CPA
T3 construct: endogenous in cells; host or cells: DDT1 cells (hamster vas deferens smooth muscle cell line): membranes in A1 and A3, whole cells in A4
T3 sequence (A0A1U8BVR4 1-326): T2 sequence (A0A1U8BVR4 1-326)
Description: as §2
A scintillation proximity assay (SPA) using rabbit antibodies directed at cAMP using an added tracer of adenosine 3′,5′-cyclic phosphoric acid 2′-O-succinyl-3-[^125I]iodotyrosine methyl ester and fluoromicrospheres containing anti-rabbit specific antibodies as described by Amersham Pharmacia Biotech (Biotrak cellular communication assays). Briefly, DDT1 cells were cultured in clear bottomed 96 well microtiter plates with opaque wells at concentrations between 10^4 to 10^6 cells per well in 40 μl of HBSS at 37° C. (5% CO2 and 95% humidity). The partial or full A1 agonists (5 μl) of this invention were incubated at various concentrations with the DDT1 cells in the presence of rolipram (50 μM), and 5 μM forskolin for 10 min at 37° C. The cells were immediately lysed by treatment 5 μl of 10% dodecyltrimethylammonium bromide followed by shaking using microplate shaker. After incubation of the plate for 5 minutes, an immunoreagent solution (150 μl containing equal volumes of tracer, antiserum, and SPA fluorospheres) was added to each well followed by sealing the plate. After 15-20 h at 23° C., the amount of bound [^125I] cAMP to the fluoromicrospheres was determined by counting in a microtitre plate scintillation counter for 2 minutes. Comparison of counts with standard curves generated for cAMP using a similar protocol afforded the cAMP present after cell lysis.

A1 receptor [3] = target: T4, A1 receptor (Mesocricetus auratus, UniProt A0A1U8BVR4); experiment: Competitive binding assay, DDT1 cell membranes, [3H]CCPA; parameters: species or system hamster; settings: DDT1 membrane prep, agonist [3H]CCPA 2 nM, 23 C, 2 h
T4 construct: endogenous in cells; host or cells: DDT1 cells (hamster vas deferens smooth muscle cell line): membranes in A1 and A3, whole cells in A4
T4 sequence (A0A1U8BVR4 1-326): T2 sequence (A0A1U8BVR4 1-326)
Description: as §2, §3, §1

Structure (SMILES)	Ki (A1 receptor [1])	GTP[…]S (A1 AdoR)	Camp [2]	Ki (A1 receptor [3])	effect on forskolin induced cAMP generation [2]
CC(C)SC[C@H]1O[C@@H](n2cnc3c(N[C@@H]4CCOC4)ncnc32)[C@H](O)[C@@H]1O [Compound 10, 2-{6-[((3R)oxolan-3-yl)amino]purin-9-yl}(4S,5S,2R,3R)-5-[(Methylethylthio)methyl]oxolane-3,4-diol]	188 nM	–	–	–	–
O[C@@H]1[C@H](O)[C@@H](CSc2ccc(Cl)cc2)O[C@H]1n1cnc2c(N[C@@H]3CCOC3)ncnc21 [Compound 13, 2-{6-[((3R)oxolan-3-yl)amino]purin-9-yl}(4S,5S,2R,3R)-5-[(4-chlorophenylthio)methyl]oxolane-3,4-diol]	–	69%	30%	–	–
O[C@@H]1[C@H](O)[C@@H](CSc2ccccc2)O[C@H]1n1cnc2c(N[C@@H]3CCOC3)ncnc21 [Compound 11, 2-{6-[((3R)oxolan-3-yl)amino]purin-9-yl}(4S,5S,2R,3R)-5-(phenylthiomethyl)oxolane-3,4-diol]	44 nM	–	–	–	–
Cc1ccc(SC[C@H]2O[C@@H](n3cnc4c(N[C@@H]5CCOC5)ncnc43)[C@H](O)[C@@H]2O)cc1 [Compound 15, 2-{6-[((3R)oxolan-3-yl)amino]purin-9-yl}(4S,5S,2R,3R)-5-[(4-methylphenylthio)methyl]oxolane-3,4-diol]	–	48%	22%	922 nM	–
O[C@@H]1[C@H](O)[C@@H](CSc2ccc(C(F)(F)F)cc2)O[C@H]1n1cnc2c(N[C@@H]3CCOC3)ncnc21 [Compound 16, 2-{6-[((3R)oxolan-3-yl)amino]purin-9-yl}(4S,5S,2R,3R)-5-[(4-(trifluoromethyl)phenylthio)methyl]oxolane-3,4-diol]	–	31%	22%	7700 nM	–
CCSC[C@H]1O[C@@H](n2cnc3c(N[C@@H]4CCOC4)ncnc32)[C@H](O)[C@@H]1O [Compound 8, 2-{6-[((3R)oxolan-3-yl)amino]purin-9-yl}(4S,5S,2R,3R)-5-[(Ethylthio)methyl]oxolane-3,4-diol]	–	104%	37%	–	–
COc1ccc(SC[C@H]2O[C@@H](n3cnc4c(N[C@@H]5CCOC5)ncnc43)[C@H](O)[C@@H]2O)cc1 [Compound 12, 2-{6-[((3R)oxolan-3-yl)amino]purin-9-yl}(4S,5S,2R,3R)-5-[(4-Methoxyphenylthio)methyl]oxolane-3,4-diol]	–	52%	−9%	820 nM	–
CSC[C@H]1O[C@@H](n2cnc3c(N[C@@H]4CCOC4)ncnc32)[C@H](O)[C@@H]1O [Compound 7, 2-{6-[((3R)oxolan-3-yl)amino]purin-9-yl}(4S,5S,2R,3R)-5-(methylthiomethyl)oxolane-3,4-diol]	222 nM	–	–	–	–
OC[C@H]1O[C@@H](n2cnc3c(NC4CCCC4)ncnc32)[C@H](O)[C@@H]1O [CPA, N-6-cyclopentyladenosine, reference compound]	–	–	107%	–	diminished the amount of forskolin induced cAMP generation back to basal levels
O[C@@H]1[C@H](O)[C@@H](CSc2ccc(F)cc2)O[C@H]1n1cnc2c(N[C@@H]3CCOC3)ncnc21 [Compound 14, 2-{6-[((3R)oxolan-3-yl)amino]purin-9-yl}(4S,5S,2R,3R)-5-[(4-fluorophenylthio)methyl]oxolane-3,4-diol]	–	61%	47%	363 nM	–
COc1ccccc1SC[C@H]1O[C@@H](n2cnc3c(N[C@@H]4CCOC4)ncnc32)[C@H](O)[C@@H]1O [Compound 17, 2-{6-[((3R)oxolan-3-yl)amino]purin-9-yl}(4S,5S,2R,3R)-5-[(2-Methoxyphenylthio)methyl]oxolane-3,4-diol]	–	52%	18%	947 nM	–
